Laboratory results taken from paper PMC10952710 (2023).

Assays:
[1] = system: synthetic neomycin-sensing riboswitch, 2FA-labeled (RNA, riboswitch, 2-fluoroadenine at 16, 17 and 24) GGCUGCUUGUCCUUUAAUGGUCCAGCC; assay: 19F NMR titration; conditions: 303 K; saturating ligand; 215-1200 µM RNA, 1-1.5 equivalents ligand
[2] = system: synthetic neomycin-sensing riboswitch, 2FA-labeled (RNA, riboswitch, 2-fluoroadenine at 16, 17 and 24) GGCUGCUUGUCCUUUAAUGGUCCAGCC; assay: ITC; conditions: 200 mM NaCl, 10 mM MgCl2, 20 mM Na-cacodylate, 1 mM spermidine, pH 6.8, 37 °C, one-site model

NC[C@@H]1O[C@H](O[C@H]2[C@@H](O)[C@H](O[C@@H]3[C@@H](O)[C@H](N)C[C@H](N)[C@H]3O[C@H]3O[C@H](CN)[C@@H](O)[C@H](O)[C@H]3N)O[C@@H]2CO)[C@H](N)[C@@H](O)[C@@H]1O
binding [1]: yes

NC[C@@H]1O[C@H](O[C@H]2[C@@H](O)[C@H](O[C@@H]3[C@@H](O)[C@H](N)C[C@H](N)[C@H]3O[C@H]3O[C@H](CO)[C@@H](O)[C@H](O)[C@H]3N)O[C@@H]2CO)[C@H](N)[C@@H](O)[C@@H]1O
KD ([2]; 30 µM RNA, 300 µM ligand): 5.7 ± 3.8 µM

NC[C@H]1O[C@H](O[C@H]2[C@H](O[C@@H]3O[C@H](CO)[C@@H](O)[C@H]3O)[C@@H](O)[C@H](N)C[C@@H]2N)[C@H](N)[C@@H](O)[C@@H]1O
KD ([2]; 10 µM RNA, 100 µM ligand): 0.356 ± 0.019 µM
